Values quoted from earlier work in publication PMC8955938, “c-Myc Protein Level Affected by Unsymmetrical Bisacridines Influences Apoptosis and Senescence Induced in HCT116 Colorectal and H460 Lung Cancer Cells” (International Journal of Molecular Sciences, 2022).

Set-up: method as in PMID 26485768, PMID 17009029, PMID 21805041, PMID 30894570
Settings: established in similar conditions; irinotecan colon cancer treatment, cisplatin lung cancer treatment; cited from earlier work

SMILES | IC50
N.N.[Cl][Pt][Cl] [cisplatin] | ~5 µM
CCc1c2c(nc3ccc(OC(=O)N4CCC(N5CCCCC5)CC4)cc13)-c1cc3c(c(=O)n1C2)COC(=O)[C@]3(O)CC [irinotecan] | ~5 µM
